# Source: patent US12370193B2, “Method of inhibiting TREM-1” (UNIVERSITY OF FLORIDA RESEARCH FOUNDATION, INCORPORATED, priority 2019, dated 2025)
# How the values were obtained:
# RORα = assay: Gal4-RORα co-transfection promoter-reporter assay; assay type: cell-based; conditions: Gal4 assay format
# Procedure: Reporter gene assays: Twenty-four hours before transfection, HEK293T cells were plated in 96-well plates at a density of 15×10^3 cells per well. UAS:luciferase reporter and Ga14-RORa, Gal4-RORb, Gal4-RORγ, Gal4-LXRα, or Gal4 PPARγ DNA co-transfections were performed using X-tremeGENE 9 (Roche). Twenty-four hours after transfection, the cells were treated with vehicle or compound. Twenty-four hours after treatment, the luciferase activity was measured using the Dual-Glo luciferase assay system (Promega). Results were analyzed using GraphPad Prism software.
# diet-induced obesity = assay: Diet-induced obese (DIO) mouse model; assay type: in vivo, DIO mice
# OP9 cells = assay: Adipogenesis and gene expression in MDI-differentiated OP9 cells; assay type: cell-based
# Source text: FIGS. 1A to 1E: Pan modulator with poly-pharmacology. […] FIG. 1D is a graph showing PPARγ target genes (aP2 and CD36) expression in OP9 cells with and without MDI (IBMX, dexamethasone, insulin) treatment. […] SR1903 is represented as orange sticks while PPARγ, RORγ, and LXRβ are depicted as blue ribbons respectively. Specific residues driving the interaction labelled and shown as sticks as well. […] FIG. 1F are graphs showing RORγ target genes (IL17A and IL17F) expression in EL4 cells.
# FIG. 5A-5C: PPARγ and RORγ expression during adipogenesis of OP9 cells.
# Cell lines: HEK293T cells and EL4 cells (American Type Culture Collection) were maintained in DMEM and RAW264.7 cells (American Type Culture Collection) were maintained in RPMI-1640 with 10% heat inactivated FBS and antibiotics (penicillin, streptomycin; Invitrogen). OP9 cells (American Type Culture collection) were maintained in Alpha minimum essential medium (MEM-alpha) with 20% heat inactivated FBS. Twenty-four hours post-confluence, the OP9 cells were differentiated with IBMX ([…]), dexamethasone (1 μM), Insulin (10 μg/mL) for 48 hrs.
# Quantitative RT-PCR: Total RNA was extracted from EL4 or RAW264.7 cells using RNeasy Plus Micro Kit (Qiagen) and the RNA was reverse transcribed using the ABI reverse transcription kit (Applied Biosystems/Thermo Fisher Scientific, Waltham MA). Quantitative PCR was performed with a 7900HT Fast Real Time PCR System (Applied Biosystems) using SYBR green (Roche).
# [1] = 22-week-old DIO mice, 14 days, 20 mg/kg
# [2] = DIO mice, 20 mg/kg i.p. for 14 days
# [3] = OP9 cells, MDI plus 5 uM SR1903, compared to MDI treatment alone
smiles,measurement,setting,value
"Cc1cc(CN2CCN(Cc3ccncc3)CC2)ccc1-c1ccc(C(O)(C(F)(F)F)C(F)(F)F)cc1 [SR1903, 1,1,1,3,3,3-hexafluoro-2-(2′-methyl-4′-((4-(pyridin-4-ylmethyl)piperazin-1-yl)methyl)-[1,1′-biphenyl]-4-yl)propan-2-ol]",activity on RORα,RORα,lack activity
same,obesity related thymic involution,diet-induced obesity; [1],protected from obesity related thymic involution
same,thymus weight,diet-induced obesity; [1],increase in thymus weight
same,Socs3 expression in the hypothalamus,diet-induced obesity; DIO mice,repressed
same,fasting and fed insulin levels,diet-induced obesity; DIO mice,improved
same,fasting leptin levels,diet-induced obesity; DIO mice,did not alter
same,food intake,diet-induced obesity; DIO mice,reduced food intake
same,leptin resistance (leptin sensitivity test),diet-induced obesity; DIO mice,reduced
same,differentiation of αβTCR+CD4+ and αβTCR+CD8+ cells,diet-induced obesity; DIO mice thymocytes,no effect
same,λδT cell differentiation,diet-induced obesity; DIO mice thymocytes,increase
same,"HDL, TAG, and FFA",diet-induced obesity; [2],no effect
same,fasting glucose levels,diet-induced obesity; [2],improved
same,glucose excursion in glucose tolerance test,diet-induced obesity; [2],statistically significant improvement
same,total cholesterol and LDL,diet-induced obesity; [2],reduced
same,body weight reduction,"diet-induced obesity; DIO mice, 14 days of treatment",~15%
same,reduction of fat mass,"diet-induced obesity; DIO mice, 14 days, determined by NMR",~17%
same,leptin in freely feeding mice,"diet-induced obesity; DIO mice, compared to vehicle",statistically reduced
same,expression of PPARγ,OP9 cells; OP9 adipogenesis,robustly repressed
same,expression of RORγ,OP9 cells; OP9 adipogenesis,no effect
same,lipid droplet formation,"OP9 cells; OP9 cells, MDI in combination with SR1903, 3 days",suppression of lipid droplet formation
same,repression of PPARγ target gene CD36 expression,OP9 cells; [3],87%
same,repression of PPARγ target gene aP2 (FABP4) expression,OP9 cells; [3],99%
